Test system: MM1.S lenalidomide-resistant cells
Test: Cell viability (EZ-Cytox) of lenalidomide-resistant multiple myeloma cells
Type: cell-based
Settings: 42 hours culture + 3 hours EZ-Cytox, absorbance 450 nm
Protocol: The MM1.S cell line (American Type Culture Collection, ATCC from USA) was incubated in RPMI1640 medium containing 10% FBS and 1% penicillin/streptomycin at 37° C. under 5% CO2. The Lenalidomide-resistant MM1.S cell line was established by gradually adding […] lenalidomide (Sigma-Aldrich, Cat No. D2438) from 5 μM to 200 μM to the cell line culture.
In order to evaluate cytotoxic effects of the 30Kcα-CRBN recombinant fusion protein, 1×104 MM1.S lenalidomide-resistant cells were seeded in each well of a 96 well plate. 200 μM of lenalidomide and/or 3 μM of 30Kcα-CRBN recombinant fusion protein were added to each well according to the experimental group. The total medium volume of each well was adjusted to 100 μL. Then, each medium was cultured for 42 hours, and 10 μl of EZ-Cytox (Cat. No. EZ-3000 from Dogen) was added to each well, followed by incubation for 3 hours. Thereafter, absorbance was measured at 450 nm using a microplate reader (Clarostar™ from BMGlabtech), and a cell viability (%) was calculated by using the measured absorbance and shown in FIG. 2.

Row | Molecule | cell viability (lenalidomide 200 μM alone, without 30Kcα-CRBN fusion protein, FIG. 2A) | reduction of cell viability compared with the control (3 μM 30Kcα-CRBN fusion protein in combination with 200 μM lenalidomide, FIG. 2B) [%]
1 | Nc1cccc2c1CN(C1CCC(=O)NC1=O)C2=O (centres unmarked) [lenalidomide] | could not be reduced | –
2 | 30Kcα-CRBN recombinant fusion protein: Fusion recombinant protein of 30Kc19 α-helix domain (30Kc19α, SEQ ID NO: 1) linked N-terminally to human cereblon (SEQ ID NO: 2) (protein, 30Kc alpha-CRBN) ADSDVPNDILEEQLYNSVVVADYDSAVEKSKHLYEEKKSEVITNVVNKLIRNNKMNCMEYAYQLWLQGSKDIVRDCFPVEFRLIFAENMAGEGDQQDAAHNMGNHLPLLPAESEEEDEMEVEDQDSKEAKKPNIINFDTSLPTSHTYLGADMEEFHGRTLHDDDSCQVIPVLPQVMMILIPGQTLPLQLFHPQEVSMVRNLIQKDRTFAVLAYSNVQEREAQFGTTAEIYAYREEQDFGIEIVKVKAIGRQRFKVLELRTQSDGIQQAKVQILPECVLPSTMSAVQLESLNKCQIFPSKPVSREDQCSYKWWQKYQKRKFHCANLTSWPRWLYSLYDAETLMDRIKKQLREWDENLKDDSLPSNPIDFSYRVAACLPIDDVLRIQLLKIGSAIQRLRCELDIMNKCTSLCCKQCQETEITTKNEIFSLSLCGPMAAYVNPHGYVHETLTVYKACNLNLIGRPSTEHSWFPGYAWTVAQCKICASHIGWKFTATKKDMSPQKFWGLTRSALLPTIPDTEDEISPDKVILCL | – | ~50

Source: patent US11358992B2, “Cell-penetrating cereblon recombinant fusion protein and use thereof” (UPPTHERA, priority 2020, dated 2022)
